Reference: patent US10285986B2, “Compounds and anti-tumor NQO1 substrates” (The Board of Trustees of the University of Illinois, priority 2011, dated 2019)

Legend:
NQO1 = NQO1 (Homo sapiens, UniProt P15559); assay: NQO1 enzymatic measurements in vitro; type: biochemical; details: 1 μM substrate
Experimental: As further evidence that the activity of these DNQ derivatives is dependent on their ability to be reduced by NQO1, full enzymatic measurements in vitro were performed. We found a strong correlation between catalytic efficiency of substrates in vitro and their cell culture toxicity. […] This provides strong evidence that the cytotoxicity of DNQ and its derivatives are dependent primarily upon the activity of NQO1 within the cell.

[1] = tested on: DNA single strand damage, base lesions and double strand breaks; assay: DNA damage in vitro (alkaline comet assays, nuclear staining of DSB markers); type: cell-based; details: data not shown
[2] = Stability during incubation in plasma, whole blood and liver microsomes; type: in vitro ADME; details: rat, dog, and human
Experimental: Absorption Systems measured the stability of 4-31 during incubation in rat, dog, and human plasma, whole blood, and liver microsomes. […] This is in strong contrast top-lap, which has been reported to be completely degraded within about 30 min in whole blood.

[3] = pKa, log P and log D of 4-31 measured by Absorption Systems; type: physicochemical
Description: A sample of compound 4-31 was delivered to Absorption Systems, a company that specializes in preclinical formulation and stability studies. […] They measured a few physical properties of 4-31, including pKa, log P and log D. Through potentiometric titrations they measured the pKa of 4-31 to be 8.0.

healthy mice = assay: in vivo; details: mouse
Description: Because of the difficulty of repeated tail vein injections in mice, our group is using IP administration of compound.
All of these derivatives are currently being assessed for their maximum tolerated dose (MTD) in healthy mice. Compounds are formulated in HPβCD and delivered by IP injection to two mice once daily for five days.

NQO1+ cells = assay: NQO1-dependent lethality to cancer cells in vitro; type: cell-based
Description: NQO1 or PARP-1 knockdown spared the short-term lethality of DNQ-treated NQO1+ cells. BAPTA-AM (cytosolic Ca^2+ chelator) and catalase (enzymatic H2O2 scavenger) rescued DNQ-induced lethality by long-term survival assessments.

A549 NSCLC cells = assay: A549 subcutaneous xenograft model in nude mice, with or without ionizing radiation; type: in vivo, Athymic nude mice; details: 5 mg/kg by tail vein on days 1, 3, 5, 7, 9, with or without 2 grays radiation; preliminary
Experimental: We are actively experimenting with DNQ in mouse models of cancer. The Boothman lab has completed a pilot study of DNQ in an A549 subcutaneous xenograft model in nude mice (Blanco et al., Cancer Res. 2010, 70, 3896). […] Athymic nude mice were inoculated with A549 NSCLC cells and established tumors were allowed to grow to ˜200 mm^3. Mice were assigned to one of six treatment groups—four mice per group. […] The doses of DNQ were chosen based on the observation that 10 mg/kg DNQ elicited adverse reactions in mice. The other three groups received the same DNQ regimen and also received 2 grays of ionizing radiation on each treatment day. Tumor volumes were measured over the subsequent weeks (FIG. 3).

Sequence of NQO1 (P15559 whole entry): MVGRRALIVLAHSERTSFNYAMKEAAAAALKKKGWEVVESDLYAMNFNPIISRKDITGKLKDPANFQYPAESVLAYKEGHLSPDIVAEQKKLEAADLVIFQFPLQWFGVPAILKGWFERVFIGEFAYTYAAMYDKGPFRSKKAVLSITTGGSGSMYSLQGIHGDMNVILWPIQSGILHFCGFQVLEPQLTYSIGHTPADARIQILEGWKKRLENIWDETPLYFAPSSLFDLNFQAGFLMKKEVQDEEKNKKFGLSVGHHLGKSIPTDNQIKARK

| SMILES | NQO1 Initial Velocity @ 1 μM (NQO1) | DNA single strand damage and base lesions ([1]; alkaline comet assays) | delay of DNA double strand break formation after initial DNA SSBs and base lesions [1] | stability in liver microsomes ([2]; 1 hour) | stability in plasma or whole blood ([2]; 2 hours) | logP ([3]; octanol/0.15 M KCl, unionized compound) | logD ([3]; pH 3.0, octanol/0.15 M KCl) | logD ([3]; pH 4.0, octanol/0.15 M KCl) | logD ([3]; pH 6.8, octanol/0.15 M KCl) | logD ([3]; pH 7.0, octanol/0.15 M KCl) | logD ([3]; pH 8.0, octanol/0.15 M KCl) | logD ([3]; pH 9.0, octanol/0.15 M KCl) | pKa ([3]; potentiometric titrations, N—H) | dose that elicited adverse reactions in mice (healthy mice) | phenotype in mice at the MTD (healthy mice; ip) | LD90 (NQO1+ cells; 2 hour exposure of NQO1+ cells) | potency compared to β-lapachone (NQO1+ cells; cancer cell types, NQO1-dependent) | rate of tumor growth (A549 NSCLC cells) |
| --- | --- | --- | --- | --- | --- | --- | --- | --- | --- | --- | --- | --- | --- | --- | --- | --- | --- | --- |
| Cc1cc(=O)[nH]c2c1C(=O)c1c(C)cc(=O)n(CC(C)C)c1C2=O [Compound 87] | 1900 ± 200 | extensive initial DNA single strand damage and base lesions | 15 to 30 min | no sign of degradation | no sign of degradation | 1.8 | 1.78 | 1.78 | 1.76 | 1.75 | 1.49 | 0.76 | 8 |  |  |  |  |  |
| Cc1cc(=O)[nH]c2c1C(=O)c1c(C)cc(=O)n(C)c1C2=O [DNQ, Deoxynyboquinone, reference compound] | 1900 ± 100 |  |  |  |  |  |  |  |  |  |  |  |  | 10 mg/kg | lethargic and unresponsive to touch | 50 to 250 nM | 20- to 100 fold | slower the rate of tumor growth relative to control |
